# Data taken from US12459891B2, “1-[1-(4-benzyloxy-3,5-difluoro-benzoyl)-4-fluoro-pyrrolidine-2-carbonyl]-pyrrolidine-2-carbonitrile” (ACCURE THERAPEUTICS, S.L., priority 2020, dated 2025).
# Like-named read-outs stand apart in the source and are kept apart here.
# Columns and labels:
# [1] = In vivo brain exposure (plasma and brain AUC); details: male, mouse, mice, 5 mg/kg, read-out: % BBB (brain exposure, plasma and brain AUC ratio)
# Method: For each compound, twenty-four adult male mice, aged 7-8 weeks on the day of experiment, were used for the study and were allocated randomly between the groups. The experiments were performed on 3 groups of animals as described in the table below:
# After compound administration, terminal blood was performed at several time points after intraperitoneal (Comp. ex. 3) or oral administration (Ex. 1).
# After transcardiac perfusion with phosphate buffered saline, brains were also collected. All the samples were stored at −80° C. until bioanalysis.
# The plasma samples were thawed at room temperature (RT), and the samples were protein precipitated with a 2-fold volume of acetonitrile, containing 20 ng/mL phenacetin as an internal standard. The samples were mixed throughout, followed by centrifugation for 20 min at 2,200×g. The supernatants were diluted 1:1 with 150 mM phosphate buffered saline (pH 7.4) and pipetted onto UPLC 96-well plates to wait for the analysis. […]
# Levels of the compounds of Comp. Ex. 3 and example 1 were quantified from mouse plasma and brain. Samples were analyzed using a fit-on-purpose bioanalytical method using a UPLC/QE-Orbitrap-Mass Spectroscopy.
# The concentration (ng/mL) of the compounds along time was plotted and the area under the curve (AUC) in plasma and brain tissue was calculated using Graphpad Prism™ 5.0. The plasma to brain ratio was calculated as follows: […]
# 5-HT1A receptor = molecular target: T1, 5-HT1A receptor (Homo sapiens, UniProt P08908); assay: Selectivity profile, radioligand binding (SafetyScreen44 panel); details: 100 μM compound (1% DMSO); read-out: % inhibition of control specific binding
# T1 construct: purchased Cerep/Eurofins SafetyScreen44 panel
# T1 sequence (P08908 1-422): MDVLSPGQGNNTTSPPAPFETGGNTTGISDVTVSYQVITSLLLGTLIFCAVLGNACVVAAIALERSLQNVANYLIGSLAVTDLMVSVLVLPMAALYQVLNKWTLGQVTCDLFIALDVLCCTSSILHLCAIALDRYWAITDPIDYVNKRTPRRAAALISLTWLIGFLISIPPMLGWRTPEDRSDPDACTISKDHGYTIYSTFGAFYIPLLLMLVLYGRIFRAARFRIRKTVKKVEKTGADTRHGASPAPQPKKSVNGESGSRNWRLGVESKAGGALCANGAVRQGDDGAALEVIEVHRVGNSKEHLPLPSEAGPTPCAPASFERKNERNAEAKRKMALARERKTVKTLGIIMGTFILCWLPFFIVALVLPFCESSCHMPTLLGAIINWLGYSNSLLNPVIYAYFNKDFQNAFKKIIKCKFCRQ
# Method: The experiment was performed using the SafetyScreen44® panel from Cerep/Eurofins. Compounds were tested at a concentration 100 μM (in 1% DSMO).
# Compound binding was calculated as a percentage inhibition of the binding of a radioactively labeled ligand specific for each target.
# The results are expressed as a percent inhibition of control specific binding
# [formula] obtained in the presence of tested compounds.
# Results showing an inhibition higher than 50% are considered to represent significant effects of the test compounds.
# Caco-2 cells = assay: Caco-2 permeability assay (apical to basal); format: in vitro ADME, human; details: 50 μM, 2 hours at 37° C.
# From the text: Caco-2 cells are widely used as an in vitro model for prediciting human drug absorption. The Caco-2 cell line is derived from human colorectal carcinoma, and when cultured, the cells spontaneously differentiate into monolayers of polarized enterocytes.
# Experiments were done using the CacoReay permeability kit (ReadyCell, Barcelona, Spain).
# On the same week of the reception of the kit, the shipping medium of the cells was liquefied according to user's manual provided with the kit, after which the shipping medium was replaced with fresh Dulbecco's Modified Eagle's Medium (DMEM, low-glucose).
# Three days later, equivalent to day 20 of cell culture, the quality of the barrier system and the presence of tight junctions between the cells was checked by measuring the trans endothelial electrical resistance (TEER) of the cell barrier. […]
# For the transport experiments (apical to basal), the cells were incubated with the solutions containing the compounds for 2 hours at 37° C. Afterwards, the content of the compartments was recovered and analyzed by HPLC (Column C18 Sunfire 100 mm×4.6 mm, […], 100 Å, Waters; Flow rate 1 mL/min; Gradient 0-100% B in 8 min A=0.045% Trifluoracetic acid in H2O and B 0.036% Trifluoracetic acid in acetonitrile, detection at 220 nm). […]
# In the Caco-2 permeability assay, the percentage of transport (T %) for the compounds was calculated according to the following equation: […]
Kp ([1]; IP),"% T (percentage of transport), Caco-2 (Caco-2 cells)",Kp ([1]; PO),SMILES,inhibition at 100 µM (5-HT1A receptor)
0.21,5.7%,–,"COc1cc(C(=O)N2CC(F)(F)C[C@H]2C(=O)N2CCC[C@H]2C#N)cc(OC)c1OCc1ccccc1 [Comp Ex. 3, (S)-1-((2S)-1-(4-(benzyloxy)-3,5-dimethoxybenzoyl)-4,4-difluoropyrrolidine-2-carbonyl)pyrrolidine-2-carbonitrile]",64.6%
–,45%,0.253,"N#C[C@@H]1CCCN1C(=O)[C@@H]1C[C@@H](F)CN1C(=O)c1cc(F)c(OCc2ccccc2)c(F)c1 [Example 1, (S)-1-((2S,4R)-1-(4-(benzyloxy)-3,5-difluorobenzoyl)-4-fluoropyrrolidine-2-carbonyl)pyrrolidine-2-carbonitrile]",-6.3%
